Laboratory results as given in ChEMBL document CHEMBL3885861, “Open TG-GATES”.

Organism: Rattus norvegicus
Experiment: Open TG-GATES - Regimen: Single
Type: toxicity, organism-based, Sprague-Dawley
Parameters: regimen Single, gender Male, age 6 weeks
Conditions: in vivo, iv, route intravenous injection; for Eos / Fbg / Ht / Lym / MCH / MCHC / MCV / Mono / PT / Plat / RBC / Ret / Bas / Hb / Neu: tissue Blood; for KIDNEY_L / KIDNEY_R / KIDNEY_TOTAL: tissue Kidney; for LIVER: tissue Liver; for ALP / ALT / AST / CRE / DBIL / GLC / K / Na / RALB / TBIL / TC / TG / TP / gamma-GTP / LDH: tissue Plasma
[1] = 3 mg/kg, 3 h, dose level Middle
[2] = 3 mg/kg, 6 h, dose level Middle
[3] = 3 mg/kg, 9 h, dose level Middle
[4] = 3 mg/kg, 24 h, dose level Middle

## COc1cccc2c1C(=O)c1c(O)c3c(c(O)c1C2=O)C[C@@](O)(C(=O)CO)C[C@@H]3O[C@H]1C[C@H](N)[C@H](O)[C@H](C)O1 [DOXORUBICIN]
[1]
  Eos: 0.6%
  Fbg: 260.4 mg/dL
  Ht: 38%
  Lym: 78.6%
  MCH: 21.6 pg
  MCHC: 34.7%
  MCV: 62.4 fL
  Mono: 3.8%
  PT: 16.2 s
  Plat: 113.3 x10_4/uL
  RBC: 609.6 x10_4/ul
  Ret: 6.7%
  KIDNEY_L: 0.9 g
  KIDNEY_R: 0.9 g
  KIDNEY_TOTAL: 1.8 g
  LIVER: 9.4 g
  ALP: 1266.2 IU/L
  ALT: 43.2 IU/L
  AST: 80.2 IU/L
  CRE: 0.2 mg/dL
  DBIL: 0.002 mg/dL
  GLC: 174.2 mg/dL
  K: 4.1 meq/L
  Na: 141.2 meq/L
  RALB: 3 g/dL
  TBIL: 0.022 mg/dL
  TC: 65.6 mg/dL
  TG: 99.4 mg/dL
  TP: 5.1 g/dL
  gamma-GTP: 1 IU/L
[2]
  TERMINAL_BW: 208.1 g
  Bas: 0%
  Eos: 0.8%
  Fbg: 294 mg/dL
  Ht: 37.7%
  Lym: 79%
  MCH: 21.7 pg
  MCHC: 34.3%
  MCV: 63.3 fL
  Mono: 4.2%
  PT: 16 s
  Plat: 130.3 x10_4/uL
  RBC: 595.4 x10_4/ul
  Ret: 7%
  KIDNEY_L: 0.9 g
  KIDNEY_R: 0.9 g
  KIDNEY_TOTAL: 1.8 g
  LIVER: 8.4 g
  ALP: 1404.2 IU/L
  AST: 77.2 IU/L
  CRE: 0.1 mg/dL
  DBIL: 0.002 mg/dL
  GLC: 177 mg/dL
  K: 4 meq/L
  LDH: 128.2 IU/L
  Na: 140.6 meq/L
  RALB: 2.9 g/dL
  TBIL: 0.032 mg/dL
  TC: 73.2 mg/dL
  TG: 59.6 mg/dL
  TP: 5.1 g/dL
  gamma-GTP: 1.8 IU/L
[3]
  TERMINAL_BW: 210 g
  Bas: 0%
  Eos: 0.6%
  Fbg: 280.6 mg/dL
  Hb: 13 g/dL
  Ht: 38.2%
  Lym: 76%
  MCH: 21.1 pg
  MCHC: 34.2%
  MCV: 61.8 fL
  Mono: 4.2%
  Neu: 18%
  PT: 15.8 s
  Plat: 117 x10_4/uL
  RBC: 617.6 x10_4/ul
  Ret: 6.9%
  KIDNEY_L: 0.9 g
  KIDNEY_R: 0.9 g
  KIDNEY_TOTAL: 1.8 g
  LIVER: 8.1 g
  ALP: 1233.4 IU/L
  ALT: 33.2 IU/L
  AST: 69.2 IU/L
  CRE: 0.1 mg/dL
  DBIL: 0 mg/dL
  GLC: 186.8 mg/dL
  K: 4.3 meq/L
  Na: 140.6 meq/L
  RALB: 2.8 g/dL
  TBIL: 0.018 mg/dL
  TC: 71 mg/dL
  TG: 70.2 mg/dL
  TP: 5.1 g/dL
  gamma-GTP: 1.2 IU/L
[4]
  TERMINAL_BW: 215.4 g
  Bas: 0%
  Eos: 0.2%
  Fbg: 277.8 mg/dL
  Hb: 13.4 g/dL
  Ht: 37.4%
  Lym: 80.8%
  MCH: 21.6 pg
  MCHC: 35.7%
  MCV: 60.4 fL
  Mono: 4%
  Neu: 13.2%
  PT: 16.6 s
  Plat: 118.9 x10_4/uL
  RBC: 620 x10_4/ul
  Ret: 4.5%
  KIDNEY_L: 0.9 g
  KIDNEY_R: 0.9 g
  KIDNEY_TOTAL: 1.9 g
  ALP: 1504.4 IU/L
  AST: 68.2 IU/L
  CRE: 0.2 mg/dL
  DBIL: 0.002 mg/dL
  GLC: 191.4 mg/dL
  K: 4.5 meq/L
  LDH: 124.6 IU/L
  Na: 143 meq/L
  RALB: 3 g/dL
  TBIL: 0.018 mg/dL
  TC: 75 mg/dL
  TG: 88.6 mg/dL
  TP: 5.2 g/dL
  gamma-GTP: 1 IU/L
10 mg/kg, 3 h, dose level High
  TERMINAL_BW: 211.4 g
  Bas: 0%
